Experiments:
apple leaf cuticles [1] = assay: Membrane penetration test, penetration of 2,4-D DMA with antagonistic calcium; format: in vitro ADME; conditions: 2,4-D DMA alone, 5 g/L ai; 177 ppm Ca; 25° C./56% rel. air humidity
Procedure: (§1) The potential of the C8/10 glucamide, which is independent of the surfactant action, to promote foliar absorption of active agrochemical ingredients was determined in membrane penetration tests with apple or pear leaf cuticles. […] The stomata-free cuticles were first dried under air and then installed into stainless steel diffusion cells. After application to the original upper side of the leaf and evaporation of the test liquid, i.e. of the aqueous preparations of the active ingredients without or with the C8/10-glucamide-containing spray liquids or comparative compositions, the diffusion cells were transferred into thermostatted blocks and charged with aqueous liquid. The water used to make up the aqueous test liquids was local tap water (of known composition). At regular intervals, samples were taken and, irrespective of the test system, the proportion of active ingredient penetrated was determined either by HPLC or scintillation measurement. […] In all other HPLC variants, only an aliquot was taken. During the experiment, the temperature in the system (block, diffusion cells, liquids, etc.) and the air humidity above the spray coating on the cuticle were known exactly and were monitored. […] The analytical determination was effected either by means of HPLC (1290 Infinity, Agilent) or analysis of radioactivity (Tricarb, Perkin Elmer). […]

apple leaf cuticles [2] = assay: Membrane penetration test, penetration of dicamba (acid); conditions: dicamba (acid) alone, 1.0 g/L ai; normal tap water (85 ppm Ca); 20° C./60% rel. air humidity
From the text: The stomata-free cuticles were first dried under air and then installed into stainless steel diffusion cells. […] The water used to make up the aqueous test liquids was local tap water (of known composition). […] In each case, the geometric mean values of the penetration for intact membranes at the mean measurement times are given.

apple leaf cuticles [3] = assay: Membrane penetration test, penetration of sulcotrione; format: in vitro ADME; conditions: sulcotrione alone, 0.2 g/L ai; 20° C./60% rel. air humidity
Procedure: as §1

apple leaf cuticles [4] = assay: Membrane penetration test, penetration of MCPA (potassium salt); format: in vitro ADME; conditions: MCPA potassium alone, 1.0 g/L ai in spray liquid; 25° C./56% rel. air humidity
Procedure: as §1

SMILES: CNC.O=C(O)COc1ccc(Cl)cc1Cl [2,4-D DMA, 2,4-D]
- Mean penetration of 2,4-D DMA after 4 h (apple leaf cuticles [1]): 0.2%
- Mean penetration of 2,4-D DMA after 1 day (apple leaf cuticles [1]): 0.3%

SMILES: COc1c(Cl)ccc(Cl)c1C(=O)O [Dicamba (acid), dicamba]
- Mean penetration of dicamba (acid) after 5 h (apple leaf cuticles [2]): 4.4%
- Mean penetration of dicamba (acid) after 1 day (apple leaf cuticles [2]): 12.4%

SMILES: CS(=O)(=O)c1ccc(C(=O)C2C(=O)CCCC2=O)c(Cl)c1 [Sulcotrione, sulcotrione]
- Mean penetration of sulcotrione after 5 h (apple leaf cuticles [3]): <1%
- Mean penetration of sulcotrione after 1 day (apple leaf cuticles [3]): <1%

SMILES: Cc1cc(Cl)ccc1OCC(=O)[O-].[K+] [MCPA potassium, MCPA]
- Mean penetration of MCPA (potassium salt) after 4 h (apple leaf cuticles [4]): 1.6%
- Mean penetration of MCPA (potassium salt) after 1 day (apple leaf cuticles [4]): 7.2%

Source: patent publication US20170055524A1, “Aqueous Adjuvant Composition For Increasing The Efficacy Of Electrolyte Active Substances” (priority 2014, published 2017)
